The results in this text go back to paper PMC5218480 (PLoS ONE, 2017).

For this test, the system named is MV-4-11 cells. Briefly: Gene expression microarray analysis (Affymetrix PrimeView) and GSEA. The test is classed as cell-based, human. Set-up: RFU PODN (11730768_x_at) / Fold change /veh PODN (11730768_x_at) / RFU LINC00158 (11744669_a_at) / Fold change /veh LINC00158 (11744669_a_at) / RFU DUSP10 (11751237_a_at) / Fold change /veh DUSP10 (11751237_a_at) / RFU ID3 (11757404_x_at) / Fold change /veh ID3 (11757404_x_at) / RFU PLEKHG5 (11737974_s_at) / Fold change /veh PLEKHG5 (11737974_s_at) / RFU LRRC4B (11730491_at) / Fold change /veh LRRC4B (11730491_at) / RFU GIMAP4 (11747438_a_at) / Fold change /veh GIMAP4 (11747438_a_at) / RFU KRT8 (11758183_x_at) / Fold change /veh KRT8 (11758183_x_at) / RFU CNN1 (11734310_a_at) / Fold change /veh CNN1 (11734310_a_at) / RFU VPS37D (11726825_at) / Fold change /veh VPS37D (11726825_at) / RFU C10orf10 (11716522_x_at) / Fold change /veh C10orf10 (11716522_x_at) / RFU KIR2DL2 /// KIR2DL4 /// KIR2DL5A /// KIR2DL5B /// KIR2DS1 /// KIR2DS2 /// KIR2DS3 /// KIR2DS4 /// KIR3DL3 /// KIR3DL3 /// KIR3DS1 (11738374_at) / Fold change /veh KIR2DL2 /// KIR2DL4 /// KIR2DL5A /// KIR2DL5B /// KIR2DS1 /// KIR2DS2 /// KIR2DS3 /// KIR2DS4 /// KIR3DL3 /// KIR3DL3 /// KIR3DS1 (11738374_at) / RFU C1QL1 (11718748_at) / Fold change /veh C1QL1 (11718748_at) / RFU TMPRSS4 (11747572_a_at) / Fold change /veh TMPRSS4 (11747572_a_at) / RFU HAMP (11756126_x_at) / Fold change /veh HAMP (11756126_x_at) / RFU RNFT2 (11725882_a_at) / Fold change /veh RNFT2 (11725882_a_at) / RFU NR4A2 (11747474_a_at) / Fold change /veh NR4A2 (11747474_a_at) / RFU ABCC12 (11746883_a_at) / Fold change /veh ABCC12 (11746883_a_at) / RFU TMEM136 (11760407_x_at) / Fold change /veh TMEM136 (11760407_x_at) / RFU CLDN22 /// WWC2 (11732394_at) / Fold change /veh CLDN22 /// WWC2 (11732394_at) / RFU HLA-DPB1 (11760878_x_at) / Fold change /veh HLA-DPB1 (11760878_x_at) / RFU SPINT1 (11716480_a_at) / Fold change /veh SPINT1 (11716480_a_at) / RFU GAP43 (11754022_s_at) / Fold change /veh GAP43 (11754022_s_at) / RFU A4GNT (11735810_at) / Fold change /veh A4GNT (11735810_at) / RFU PRB3 (11715151_x_at) / Fold change /veh PRB3 (11715151_x_at) / RFU TUBB4B (11761932_at) / Fold change /veh TUBB4B (11761932_at) / RFU CAPN14 (11732068_a_at) / Fold change /veh CAPN14 (11732068_a_at) / RFU TMCC2 (11721928_a_at) / Fold change /veh TMCC2 (11721928_a_at) / RFU IRGQ (11745062_a_at) / Fold change /veh IRGQ (11745062_a_at) / RFU FAM174B (11720279_a_at) / Fold change /veh FAM174B (11720279_a_at) / RFU TMPRSS4 (11748680_a_at) / Fold change /veh TMPRSS4 (11748680_a_at) / RFU FAM212B (11763350_a_at) / Fold change /veh FAM212B (11763350_a_at) / RFU PLEKHG5 (11743358_a_at) / Fold change /veh PLEKHG5 (11743358_a_at) / RFU ZSCAN30 (11745921_a_at) / Fold change /veh ZSCAN30 (11745921_a_at) / RFU CMKLR1 (11741424_a_at) / Fold change /veh CMKLR1 (11741424_a_at) / RFU LOC101060620 /// MAPK8IP1 (11723275_at) / Fold change /veh LOC101060620 /// MAPK8IP1 (11723275_at) / RFU SPTSSB (11747773_x_at) / Fold change /veh SPTSSB (11747773_x_at) / RFU PRSS12 (11739890_at) / Fold change /veh PRSS12 (11739890_at) / RFU BIN1 (11741810_x_at) / Fold change /veh BIN1 (11741810_x_at) / RFU WNT11 (11732464_a_at) / Fold change /veh WNT11 (11732464_a_at) / RFU C10orf10 (11716521_a_at) / Fold change /veh C10orf10 (11716521_a_at) / RFU C5orf56 (11738089_at) / Fold change /veh C5orf56 (11738089_at) / RFU CYB561 (11721691_x_at) / Fold change /veh CYB561 (11721691_x_at) / RFU ANKRD19P (11752326_a_at) / Fold change /veh ANKRD19P (11752326_a_at) / RFU OR2T12 /// OR2T33 /// OR2T8 (11738714_s_at) / Fold change /veh OR2T12 /// OR2T33 /// OR2T8 (11738714_s_at) / RFU VCAN (11748164_a_at) / Fold change /veh VCAN (11748164_a_at) / RFU JSRP1 (11732532_at) / Fold change /veh JSRP1 (11732532_at) / RFU KRTAP10-11 (11738290_x_at) / Fold change /veh KRTAP10-11 (11738290_x_at) / RFU MYO3A (11730013_a_at) / Fold change /veh MYO3A (11730013_a_at) / RFU EBF3 (11725865_a_at) / Fold change /veh EBF3 (11725865_a_at) / RFU CAMK2N1 (11719241_x_at) / Fold change /veh CAMK2N1 (11719241_x_at) / RFU C5orf56 (11738088_a_at) / Fold change /veh C5orf56 (11738088_a_at) / RFU OLFML3 (11715873_a_at) / Fold change /veh OLFML3 (11715873_a_at) / RFU LOC100653217 /// NTM (11731650_a_at) / Fold change /veh LOC100653217 /// NTM (11731650_a_at) / RFU MAPK11 (11762145_a_at) / Fold change /veh MAPK11 (11762145_a_at) / RFU FIZ1 (11724087_x_at) / Fold change /veh FIZ1 (11724087_x_at) / RFU OASL (11726364_x_at) / Fold change /veh OASL (11726364_x_at) / RFU SOX15 (11748057_x_at) / Fold change /veh SOX15 (11748057_x_at) / RFU CD79A (11719716_a_at) / Fold change /veh CD79A (11719716_a_at) / RFU HIST1H1D (11736915_at) / Fold change /veh HIST1H1D (11736915_at) / RFU CASKIN2 (11723855_a_at) / Fold change /veh CASKIN2 (11723855_a_at) / RFU LOC730098 (11760151_x_at) / Fold change /veh LOC730098 (11760151_x_at) / RFU OR4N2 (11742367_at) / Fold change /veh OR4N2 (11742367_at) / RFU PRRT2 (11749266_a_at) / Fold change /veh PRRT2 (11749266_a_at) / RFU SNX32 (11753110_a_at) / Fold change /veh SNX32 (11753110_a_at) / RFU CDHR5 (11726645_a_at) / Fold change /veh CDHR5 (11726645_a_at) / RFU RCAN1 (11760418_a_at) / Fold change /veh RCAN1 (11760418_a_at) / RFU FAM167A (11723789_a_at) / Fold change /veh FAM167A (11723789_a_at) / RFU FAM26E (11764081_at) / Fold change /veh FAM26E (11764081_at) / RFU ISYNA1 (11749810_s_at) / Fold change /veh ISYNA1 (11749810_s_at) / RFU ACY1 (11761880_at) / Fold change /veh ACY1 (11761880_at) / RFU 11764098_at / Fold change /veh 11764098_at / RFU SAMD14 (11745864_x_at) / Fold change /veh SAMD14 (11745864_x_at) / RFU NPB (11741838_a_at) / Fold change /veh NPB (11741838_a_at) / RFU TMPRSS6 (11731388_a_at) / Fold change /veh TMPRSS6 (11731388_a_at) / RFU KRTAP10-2 (11738614_at) / Fold change /veh KRTAP10-2 (11738614_at) / RFU ARHGAP8 /// PRR5-ARHGAP8 (11727945_x_at) / Fold change /veh ARHGAP8 /// PRR5-ARHGAP8 (11727945_x_at) / RFU KRTAP5-7 /// NADSYN1 (11734609_at) / Fold change /veh KRTAP5-7 /// NADSYN1 (11734609_at) / RFU RASL12 (11751679_a_at) / Fold change /veh RASL12 (11751679_a_at) / RFU CDKN2B (11736163_a_at) / Fold change /veh CDKN2B (11736163_a_at) / RFU PRF1 (11729649_at) / Fold change /veh PRF1 (11729649_at) / RFU, ZNF638 /// ZNF638-IT1 / Fold change vs veh, ZNF638 /// ZNF638-IT1 / RFU, PANK3 / Fold change vs veh, PANK3 / RFU, SH3YL1 / Fold change vs veh, SH3YL1 / RFU, ZEB2 / Fold change vs veh, ZEB2 / RFU, NRIP1 / Fold change vs veh, NRIP1 / RFU, PTTG1IP / Fold change vs veh, PTTG1IP / RFU, CAPN2 / Fold change vs veh, CAPN2 / RFU, MED14 / Fold change vs veh, MED14 / RFU, SNORA58 / Fold change vs veh, SNORA58 / RFU, C1orf63 / Fold change vs veh, C1orf63 / RFU, LRRFIP1 / Fold change vs veh, LRRFIP1 / RFU, NDUFAF7 / Fold change vs veh, NDUFAF7 / RFU, SLC12A2 / Fold change vs veh, SLC12A2 / RFU, IBTK / Fold change vs veh, IBTK / RFU, ESF1 / Fold change vs veh, ESF1 / Fold change vs veh, TMEM50B / RFU, TAOK1 / Fold change vs veh, TAOK1 / RFU, ACBD3 / Fold change vs veh, ACBD3 / RFU, TMA16 / Fold change vs veh, TMA16 / RFU, RWDD3 / Fold change vs veh, RWDD3 / RFU, BCAT1 / Fold change vs veh, BCAT1 / RFU, EDEM3 / Fold change vs veh, EDEM3 / RFU, TMEM33 / Fold change vs veh, TMEM33 / RFU, WDR75 / Fold change vs veh, WDR75 / RFU, AHCTF1 / Fold change vs veh, AHCTF1 / RFU, TFRC / Fold change vs veh, TFRC / RFU, ZDHHC17 / Fold change vs veh, ZDHHC17 / RFU, NOM1 / Fold change vs veh, NOM1 / RFU, ARL8B / Fold change vs veh, ARL8B / RFU, ZBTB11 / Fold change vs veh, ZBTB11 / RFU, TAMM41 / Fold change vs veh, TAMM41 / RFU, KIAA1704 /// LOC100996395 / Fold change vs veh, KIAA1704 /// LOC100996395 / RFU, ING1 / Fold change vs veh, ING1 / RFU, TRMT61B / Fold change vs veh, TRMT61B / RFU, FUBP3 / Fold change vs veh, FUBP3 / RFU, TP53 / Fold change vs veh, TP53 / RFU, TNKS2 / Fold change vs veh, TNKS2 / RFU, ZFP14 / Fold change vs veh, ZFP14 / RFU, ACTR2 / Fold change vs veh, ACTR2 / RFU, PPP3R1 / Fold change vs veh, PPP3R1 / RFU, PIK3R1 / Fold change vs veh, PIK3R1 / RFU, HNRNPA1 / Fold change vs veh, HNRNPA1 / RFU, RNF170 / Fold change vs veh, RNF170 / RFU, ZNF28 / Fold change vs veh, ZNF28 / RFU, RNGTT / Fold change vs veh, RNGTT / RFU, OGT / Fold change vs veh, OGT / RFU, BRD1 / Fold change vs veh, BRD1 / RFU, MARS / Fold change vs veh, MARS / RFU, ZNF655 / Fold change vs veh, ZNF655 / RFU, FAHD1 / Fold change vs veh, FAHD1 / RFU, BDP1 / Fold change vs veh, BDP1 / RFU, LRRCC1 / Fold change vs veh, LRRCC1 / RFU, ARID1A / Fold change vs veh, ARID1A / RFU, ZNF146 / Fold change vs veh, ZNF146 / RFU, ZNF330 / Fold change vs veh, ZNF330 / RFU, GPN3 / Fold change vs veh, GPN3 / RFU, C9orf123 / Fold change vs veh, C9orf123 / RFU, N4BP2L2 / Fold change vs veh, N4BP2L2 / RFU, ARFIP1 / Fold change vs veh, ARFIP1 / RFU, FAM179B / Fold change vs veh, FAM179B / RFU, BCL10 / Fold change vs veh, BCL10 / RFU, UHRF1BP1L / Fold change vs veh, UHRF1BP1L / RFU, BET1 / Fold change vs veh, BET1 / RFU, CNOT2 / Fold change vs veh, CNOT2 / RFU, ZNF268 / Fold change vs veh, ZNF268 / Fold change vs veh, ZNF507 / RFU, DGCR2 / Fold change vs veh, DGCR2 / RFU, WDSUB1 / Fold change vs veh, WDSUB1 / Fold change vs veh, HSP90B1 /// MIR3652 / RFU, ADSS / Fold change vs veh, ADSS / RFU, GK / Fold change vs veh, GK / RFU, ZNF148 / Fold change vs veh, ZNF148 / RFU, TAF9 / Fold change vs veh, TAF9 / RFU, SLC1A5 / Fold change vs veh, SLC1A5 / RFU, SLMO2 / Fold change vs veh, SLMO2 / RFU, ABCC4 / Fold change vs veh, ABCC4 / RFU, LOC101060439 /// RAP1B / Fold change vs veh, LOC101060439 /// RAP1B / RFU, RFX7 / Fold change vs veh, RFX7 / RFU, GTPBP10 / Fold change vs veh, GTPBP10 / RFU, CNEP1R1 / Fold change vs veh, CNEP1R1 / RFU, BIVM-ERCC5 /// ERCC5 / Fold change vs veh, BIVM-ERCC5 /// ERCC5 / RFU, ILF3 / Fold change vs veh, ILF3 / RFU 11762660_at / Fold change /veh 11762660_at / RFU VCAN (11757783_s_at) / Fold change /veh VCAN (11757783_s_at) / RFU DDX43 (11728927_at) / Fold change /veh DDX43 (11728927_at) / RFU KRT8 (11758188_x_at) / Fold change /veh KRT8 (11758188_x_at) / RFU NKD1 (11759106_at) / Fold change /veh NKD1 (11759106_at) / RFU SRD5A1 (11742802_a_at) / Fold change /veh SRD5A1 (11742802_a_at) / RFU TPSAB1 /// TPSB2 (11721975_s_at) / Fold change /veh TPSAB1 /// TPSB2 (11721975_s_at) / RFU GSTM3 (11746129_a_at) / Fold change /veh GSTM3 (11746129_a_at) / RFU IL23R (11737362_x_at) / Fold change /veh IL23R (11737362_x_at) / RFU TMEM51 (11727254_a_at) / Fold change /veh TMEM51 (11727254_a_at) / RFU PIWIL2 (11732686_x_at) / Fold change /veh PIWIL2 (11732686_x_at) / RFU ORM1 (11744905_x_at) / Fold change /veh ORM1 (11744905_x_at) / RFU CCDC152 (11743942_at) / Fold change /veh CCDC152 (11743942_at) / RFU ECM1 (11717891_a_at) / Fold change /veh ECM1 (11717891_a_at) / RFU IL23R (11748794_a_at) / Fold change /veh IL23R (11748794_a_at) / RFU TNFAIP8L3 (11732012_x_at) / Fold change /veh TNFAIP8L3 (11732012_x_at) / RFU MBOAT4 (11741988_at) / Fold change /veh MBOAT4 (11741988_at) / RFU 11764193_at / Fold change /veh 11764193_at / RFU TMEM53 (11763286_at) / Fold change /veh TMEM53 (11763286_at) / RFU MAGEB2 (11727129_at) / Fold change /veh MAGEB2 (11727129_at) / RFU TMEM200A (11744735_a_at) / Fold change /veh TMEM200A (11744735_a_at) / RFU CCDC152 (11751479_a_at) / Fold change /veh CCDC152 (11751479_a_at) / RFU FAM211A (11726209_a_at) / Fold change /veh FAM211A (11726209_a_at) / RFU RGS16 (11746705_a_at) / Fold change /veh RGS16 (11746705_a_at) / RFU VCAN (11755009_s_at) / Fold change /veh VCAN (11755009_s_at) / RFU RHOB (11743442_s_at) / Fold change /veh RHOB (11743442_s_at) / RFU RGS16 (11720943_a_at) / Fold change /veh RGS16 (11720943_a_at) / RFU RGS16 (11720944_at) / Fold change /veh RGS16 (11720944_at) / RFU, VPS4B / Fold change vs veh, VPS4B / RFU, CREB1 / Fold change vs veh, CREB1 / RFU, DNAJC13 / Fold change vs veh, DNAJC13 / RFU, GNAQ / Fold change vs veh, GNAQ / RFU, CDK5R1 / Fold change vs veh, CDK5R1 / RFU, ZRANB3 / Fold change vs veh, ZRANB3 / RFU, CUL4A / Fold change vs veh, CUL4A / RFU, CCNY / Fold change vs veh, CCNY / RFU, UFL1 / Fold change vs veh, UFL1 / RFU, COG3 / Fold change vs veh, COG3 / RFU, DIAPH2 / Fold change vs veh, DIAPH2 / RFU, SKA2 / Fold change vs veh, SKA2 / RFU, AFF3 / Fold change vs veh, AFF3 / RFU, LMF1 / Fold change vs veh, LMF1 / RFU, IPO11 / Fold change vs veh, IPO11 / RFU, DFFB / Fold change vs veh, DFFB / RFU, FOXP1 / Fold change vs veh, FOXP1 / RFU, CARD8 / Fold change vs veh, CARD8 / RFU, STRN3 / Fold change vs veh, STRN3 / RFU, ADK / Fold change vs veh, ADK / RFU, RASSF2 / Fold change vs veh, RASSF2 / RFU, WIPF1 / Fold change vs veh, WIPF1 / RFU, LARP1B / Fold change vs veh, LARP1B / RFU, RASA1 / Fold change vs veh, RASA1 / RFU, RB1 / Fold change vs veh, RB1 / RFU, PPFIA1 / Fold change vs veh, PPFIA1 / RFU, MAT2A / Fold change vs veh, MAT2A / RFU, CCT5 / Fold change vs veh, CCT5 / RFU, WDR92 / Fold change vs veh, WDR92 / RFU, CUX1 / Fold change vs veh, CUX1 / RFU, TTC7A / Fold change vs veh, TTC7A / RFU, TMEM135 / Fold change vs veh, TMEM135 / RFU, DEPTOR / Fold change vs veh, DEPTOR / RFU, CPM / Fold change vs veh, CPM / RFU, DNAJB6 / Fold change vs veh, DNAJB6 / RFU, CACNA2D3 / Fold change vs veh, CACNA2D3 / RFU, DTX4 / Fold change vs veh, DTX4 / RFU, TFCP2 / Fold change vs veh, TFCP2 / RFU, GMCL1 /// GMCL1P1 / Fold change vs veh, GMCL1 /// GMCL1P1 / RFU, AEBP2 / Fold change vs veh, AEBP2 / RFU, SNHG1 /// SNORD22 /// SNORD25 /// SNORD26 /// SNORD27 /// SNORD28 /// SNORD29 /// SNORD31 / Fold change vs veh, SNHG1 /// SNORD22 /// SNORD25 /// SNORD26 /// SNORD27 /// SNORD28 /// SNORD29 /// SNORD31 / Fold change (Aza/veh), C12orf56 (ProbeSet 11735607_a_at) / Fold change (ACY-1035/veh), C12orf56 (ProbeSet 11735607_a_at) / Fold change (Aza/veh), FGFR1OP (ProbeSet 11751329_s_at) / Fold change (ACY-1035/veh), FGFR1OP (ProbeSet 11751329_s_at) / Fold change (Aza/veh), VPS36 (ProbeSet 11739960_a_at) / Fold change (ACY-1035/veh), VPS36 (ProbeSet 11739960_a_at) / RFU SYPL1 (11715823_x_at) / Fold change /veh SYPL1 (11715823_x_at) / RFU IGFBP7 (11715501_s_at) / Fold change /veh IGFBP7 (11715501_s_at) / RFU REEP3 (11722064_at) / Fold change /veh REEP3 (11722064_at) / RFU IGLL1 (11728026_x_at) / Fold change /veh IGLL1 (11728026_x_at): dose or concentration left out as unconfirmed. The settings on record: ProbeSet 11723944_a_at; LIST B.

As for `Nc1ncn([C@@H]2O[C@H](CO)[C@@H](O)[C@H]2O)c(=O)n1` [azacitidine], the “Fold change vs veh, PTTG1IP” value was determined as 0.86.
